From patent US6897219B2, “Heteroaryl diazacycloalkanes, their preparation and use” (priority 1997, dated 2005)
Where two headings read alike, the source gives them in different places.

Assays:
[1] = target: nAChRs comprised of α4 and β2 subunits (Rattus norvegicus, UniProt P09483+P12390); test: In vitro inhibition of 3H-cytisine binding
Procedure: The predominant subtype with high affinity for nicotine is comprised of α4 and β2 subunits. nAChRs of the latter type can selectively be labelled by the nicotine agonist ^3H-cytisine.
Tissue Preparation: Preparations are performed at 0-4° C. unless otherwise indicated. […] The homogenate is centrifuged at 27,000×g for 10 min. The supernatant is discarded and the pellet is resuspended in fresh buffer and centrifuged a second time. The final pellet is resuspended in fresh buffer (35 ml per g of original tissue) and used for binding assays.
Assay: Aliquots of 500 μl homogenate are added to 25 μl of test solution and 25 μl of ^3H-cytisine (1 nM, final concentration), mixed and incubated for 90 min at 2° C. Non-specific binding is determined using (−)-nicotine (100 μM, final concentration). After incubation the samples are added 5 ml of ice-cold buffer and poured directly onto Whatman GF/C glass fibre filters under suction and immediately washed with 2×5 ml ice-cold buffer. The amount of radioactivity on the filters is determined by conventional liquid scintillation counting. Specific binding is total binding minus non-specific binding.

[2] = target: nAChR formed by the α7 subunit isoform (Rattus norvegicus, UniProt Q05941); test: biochemical; type: binding
nAChR formed by the α7 subunit isoform, sequence (Q05941 23-502): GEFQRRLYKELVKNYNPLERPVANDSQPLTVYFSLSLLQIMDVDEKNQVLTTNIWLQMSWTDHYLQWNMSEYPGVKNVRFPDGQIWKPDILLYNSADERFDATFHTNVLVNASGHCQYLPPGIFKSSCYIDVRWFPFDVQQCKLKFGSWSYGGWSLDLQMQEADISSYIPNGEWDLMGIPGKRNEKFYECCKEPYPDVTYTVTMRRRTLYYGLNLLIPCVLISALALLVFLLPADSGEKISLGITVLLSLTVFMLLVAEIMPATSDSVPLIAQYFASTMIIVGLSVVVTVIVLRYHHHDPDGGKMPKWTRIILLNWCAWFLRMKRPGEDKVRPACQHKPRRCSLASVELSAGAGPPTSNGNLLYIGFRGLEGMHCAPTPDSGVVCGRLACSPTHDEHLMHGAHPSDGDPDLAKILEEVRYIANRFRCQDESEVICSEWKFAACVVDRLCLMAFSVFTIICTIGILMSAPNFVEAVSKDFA

[3] = target: T1, neuronal nicotinic receptors (α4β2 subtype high affinity site) (Rattus norvegicus, UniProt P09483+P12390); test: In vitro inhibition of 3H-epibatidin binding
T1 construct: The forebrain (÷cerebellum) from a male Wistar rat (150-250 g) is homogenized; from tissue; host or cells: rat forebrain (without cerebellum) membrane homogenate
T1 sequence (P09483 31-630): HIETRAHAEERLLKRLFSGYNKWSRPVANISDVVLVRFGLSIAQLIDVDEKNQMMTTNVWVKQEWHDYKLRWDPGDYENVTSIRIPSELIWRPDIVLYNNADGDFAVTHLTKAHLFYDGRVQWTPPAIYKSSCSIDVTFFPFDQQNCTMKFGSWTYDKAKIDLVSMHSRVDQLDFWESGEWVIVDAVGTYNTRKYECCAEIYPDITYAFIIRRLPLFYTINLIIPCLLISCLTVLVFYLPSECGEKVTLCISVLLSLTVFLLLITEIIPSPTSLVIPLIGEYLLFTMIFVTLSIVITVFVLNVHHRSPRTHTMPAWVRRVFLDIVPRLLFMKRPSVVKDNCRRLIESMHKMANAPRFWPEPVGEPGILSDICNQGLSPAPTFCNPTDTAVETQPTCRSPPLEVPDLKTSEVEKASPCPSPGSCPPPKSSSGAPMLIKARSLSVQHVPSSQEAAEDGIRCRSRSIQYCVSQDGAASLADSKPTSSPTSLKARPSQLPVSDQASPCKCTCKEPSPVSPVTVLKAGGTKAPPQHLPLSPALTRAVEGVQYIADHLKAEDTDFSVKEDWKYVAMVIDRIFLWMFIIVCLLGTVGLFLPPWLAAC
T1 sequence (P12390 25-500): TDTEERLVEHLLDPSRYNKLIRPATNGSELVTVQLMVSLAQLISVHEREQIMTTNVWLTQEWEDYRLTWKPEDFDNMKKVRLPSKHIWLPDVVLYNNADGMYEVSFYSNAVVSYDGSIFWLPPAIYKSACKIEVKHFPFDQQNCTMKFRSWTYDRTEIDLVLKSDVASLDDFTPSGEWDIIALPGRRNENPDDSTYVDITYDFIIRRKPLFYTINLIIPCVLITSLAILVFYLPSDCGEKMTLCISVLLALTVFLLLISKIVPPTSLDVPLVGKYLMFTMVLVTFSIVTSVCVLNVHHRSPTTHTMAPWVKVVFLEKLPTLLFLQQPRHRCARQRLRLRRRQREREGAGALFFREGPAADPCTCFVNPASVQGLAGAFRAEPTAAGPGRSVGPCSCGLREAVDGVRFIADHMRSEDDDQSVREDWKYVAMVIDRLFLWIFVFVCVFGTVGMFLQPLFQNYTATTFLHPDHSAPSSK
Procedure: The high affinity binding site for ^3H-epibatidin is most certainly binding to the α4β2 subtype of nicotinic receptors. The identity of the low affinity site is still unknown; does it represent a second nicotinic receptor or a second site in the same receptor.
Tissue preparation: Preparations are performed at 0-4° C. unless otherwise indicated. The forebrain (÷cerebellum) from a male Wistar rat (150-250 g) is homogenized for 10-20 sec in 20 ml Tris, HCl (50 mM, pH 7.4) using an Ultra-Turrax homogenizer. The tissue suspension is centrifuged at 27,000×g for 10 min. The supernatant is discarded and the pellet is washed three times by centrifugation at 27,000×g for 10 min in 20 ml fresh buffer, and the final pellet is resuspended in fresh buffer (400 ml per g of original tissue) and used for binding assays.
Assay: Aliquots of 2.0 ml homogenate are added to 0.100 ml of test solution and 0.100 ml of ^3H-epibatidin (0.3 nM, final concentration), mixed and incubated for 60 min at room temperature. Non-specific binding is determined using (−)-nicotine (30 μM, final concentration). After incubation the samples are poured directly onto Whatman GF/C glass fibre filters (presoaked in 0.1% PEI for at least 20 min) under suction and immediately washed with 2×5 ml ice-cold buffer. The amount of radioactivity on the filters is determined by conventional liquid scintillation counting. Specific binding is total binding minus non-specific binding.

[4] = relative to morphine; cited from earlier work
[5] = rat forebrain homogenate, 0.3 nM 3H-epibatidin, 60 min at room temperature, read-out: 3H-epibatidin IC50
[6] = rat cerebral cortex homogenate, 1 nM 3H-cytisine, 90 min at 2° C., read-out: 3H-cytisine IC50

nAChRs comprised of α4 and β2 subunits, sequence (P09483 31-630): as the sequence (P09483 31-630) above
nAChRs comprised of α4 and β2 subunits, sequence (P12390 25-500): as the sequence (P12390 25-500) above

Row | Structure (SMILES) | IC50 [1] [nM] | IC50 [2] [nM] | IC50 [3, 5] [nM] | melting point [°C] | IC50 [1, 6] [nM] | IC50 [3] [nM] | analgesic potency, times that of morphine [4] [times]
1 | COc1cncc(N2CCN(C)CC2)c1 [Compound 3A, 4-Methyl-1-(5-methoxy-3-pyridyl)-piperazine] | 68 | 32500 | 380 | 67.5 to 68 |  |  | 
2 | COCCOc1cncc(N2CCCN(C)CC2)c1 [Compound 7E, 1-(5-Methoxyethoxy-3-pyridyl)-4-methyl-homopiperazine] | 70 | > 30000 | 550 |  |  |  | 
3 | Clc1ccc(N2CCCCNCC2)nn1 [Compound 8B, 1-(6-Chloro-3-pyridazinyl)-1,4-diazacyclooctane] |  | 5500 |  |  | 550 | 920 | 
4 | CC(C)COc1cncc(N2CCCN(C)CC2)c1 [Compound 8E, 4-Methyl-1-[5-(2-methyl-propyloxy)-3-pyridyl]-homopiperazine] | 70 | > 30000 | 450 |  |  |  | 
5 | Brc1ccc(N2CCCNCC2)cn1 [Compound 8K, 1-(6-Bromo-3-pyridyl)-homopiperazine] |  | 620 |  |  | 1 | 10 | 
6 | CCOc1cncc(N2CCN(CC)CC2)c1 [Compound 9D, 1-(5-Ethoxy-3-pyridyl)-4-ethyl-piperazine] | 70 | > 30000 |  |  |  | 210 | 
7 | CN1CCCN(c2cncc(OCC3CC3)c2)CC1 [Compound 9E, 1-(5-Cyclopropylmethoxy-3-pyridyl)-4-methyl-homopiperazine] | 78 | > 30000 | 4800 |  |  |  | 
8 | c1ncc(N2CCCNCC2)cc1OCC1CC1 [Compound 9H, 1-(5-Cyclopropylmethoxy-3-pyridyl)-homopiperazine] | 1 | > 30000 |  |  |  | 6 | 
9 | CCCOc1cncc(N2CCCN(C)CC2)c1 [Compound 10E, 4-Methyl-1-(5-propyloxy-3-pyridyl)-homopiperazine] | 60 | > 30000 | 290 |  |  |  | 
10 | CCCOc1cncc(N2CCCNCC2)c1 [Compound 10H, 1-(5-Propyloxy-3-pyridyl)-homopiperazine] | 0.9 | > 30000 |  |  |  | 5.4 | 
11 | CCCCCCOc1cncc(N2CCCN(C)CC2)c1 [Compound 11E, 1-(5-Hexyloxy-3-pyridyl)-4-methyl-homopiperazine] |  | > 30000 |  |  | 800 | 250 | 
12 | CC(C)CCOc1cncc(N2CCCN(C)CC2)c1 [Compound 12E, 4-Methyl-1-[5-(3-methyl-butoxy)-3-pyridyl]-homopiperazine] | 55 | > 30000 | 270 |  |  |  | 
13 | CN1CCCN(c2cncc(OCC3CCCCC3)c2)CC1 [Compound 14E, 1-(5-Cyclohexylmethoxy-3-pyridyl)-4-methyl-homopiperazine] |  | > 30000 |  |  | 200 | 480 | 
14 | CCCCCOc1cncc(N2CCCN(C)CC2)c1 [Compound 15E, 4-Methyl-1-(5-pentyloxy-3-pyridyl)-homopiperazine] | 30 | > 30000 | 210 |  |  |  | 
15 | CCCCCCCOc1cncc(N2CCCN(C)CC2)c1 [Compound 16E, 1-(5-Heptyloxy-3-pyridyl)-4-methyl-homopiperazine] |  | > 30000 |  |  | 280 | 700 | 
16 | C/C=C/Oc1cncc(N2CCCN(C)CC2)c1 [Compound 17E, trans-4-Methyl-1-(5-propyl-1-en-oxy-3-pyridyl)-homopiperazine] | 20 | > 30000 |  |  |  | 90 | 
17 | CN1CCCN(c2cncc(SCc3ccccc3)c2)CC1 [Compound 18E, 4-Methyl-1-(5-thiobenzyl-3-pyridyl)-homopiperazine] |  | 15000 |  |  | 600 | 800 | 
18 | CN1CCCN(c2cncc(-c3cccnc3)c2)CC1 [Compound 19E, 4-Methyl-1-[5-(3-pyridyl)-3-pyridyl]-homopiperazine] |  | > 30000 |  |  | 170 | 1800 | 
19 | CN1CCCN(c2cncc(OC3CCCC3)c2)CC1 [Compound 25E, 1-(5-Cyclopentyloxy-3-pyridyl)-4-methyl-homopiperazine] | 80 | > 30000 | 610 |  |  |  | 
20 | Clc1ccc(C2CC3CCC2N3)cn1 (centres unmarked) [Epibatidine] |  |  |  |  |  |  | ~500
